Test results reported in PubChem BioAssay AID330 (DTP/NCI, 2004).
“And” between values parts separate entries of the source, which are not always exact repeats. Equal values may be shown once. Inconclusive results and toxic doses are left out.

Test system: P388 leukemia ip, CD2F1 mice, survival T/C
Test: NCI In Vivo Anticancer Drug Screen. Data for tumor model P388 Leukemia (intraperitoneal) in CD2F1 (CDF1) mice
Details: endpoint: median survival time, higher = longer survival
How it was run: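 Mice carrying the transplanted tumor received test compound or vehicle. Survival was recorded in each group, and the value is the treated-group measurement divided by that of the vehicle-treated control group.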

[1] = dose: 50.0 mg/kg/injection, schedule: Q01DX005 (ip), vehicle: Klucel (hydroxypropylcellulose) (HPC)
[2] = dose: 100.0 mg/kg/injection, schedule: Q01DX005 (ip), vehicle: Klucel (hydroxypropylcellulose) (HPC)
[3] = dose: 200.0 mg/kg/injection, schedule: Q01DX005 (ip), vehicle: Klucel (hydroxypropylcellulose) (HPC)
[4] = dose: 50.0 mg/kg/injection, schedule: Q01DX009 (ip), vehicle: saline
[5] = dose: 100.0 mg/kg/injection, schedule: Q01DX009 (ip), vehicle: saline
[6] = dose: 200.0 mg/kg/injection, schedule: Q01DX009 (ip), vehicle: saline
[7] = dose: 50.0 mg/kg/injection, schedule: Q01DX009 (ip), vehicle: other
[8] = dose: 100.0 mg/kg/injection, schedule: Q01DX009 (ip), vehicle: other
[9] = dose: 200.0 mg/kg/injection, schedule: Q01DX009 (ip), vehicle: other
[10] = dose: 400.0 mg/kg/injection, schedule: Q01DX009 (ip), vehicle: other
[11] = dose: 60.0 mg/kg/injection, schedule: Q01DX005 (ip), vehicle: saline with Tween-80
[12] = dose: 50.0 mg/kg/injection, schedule: Q01DX005 (ip), vehicle: saline with Tween-80
[13] = dose: 100.0 mg/kg/injection, schedule: Q01DX005 (ip), vehicle: saline with Tween-80
[14] = dose: 200.0 mg/kg/injection, schedule: Q01DX005 (ip), vehicle: saline with Tween-80
[15] = dose: 100.0 mg/kg/injection, schedule: Q01DX001 (ip), vehicle: saline with Tween-80
[16] = dose: 200.0 mg/kg/injection, schedule: Q01DX001 (ip), vehicle: saline with Tween-80
[17] = dose: 400.0 mg/kg/injection, schedule: Q01DX001 (ip), vehicle: saline with Tween-80
[18] = dose: 100.0 mg/kg/injection, schedule: Q01DX009 (ip), vehicle: Klucel (hydroxypropylcellulose) (HPC)
[19] = dose: 12.5 mg/kg/injection, schedule: Q01DX009 (ip), vehicle: saline
[20] = dose: 25.0 mg/kg/injection, schedule: Q01DX009 (ip), vehicle: saline
[21] = dose: 50.0 mg/kg/injection, schedule: Q01DX009 (ip), vehicle: saline with Tween-80
[22] = dose: 120.0 mg/kg/injection, schedule: Q01DX005 (ip), vehicle: saline with Tween-80

CN1CC[S][Sn]([CH2][Sn]2([c]3ccccc3)[S]CCN(C)CC[S]2)([c]2ccccc2)[S]CC1
T/C [1]: 99 % of control | T/C [2]: 101 % of control | T/C [3]: 100 % of control

CNC(=S)NNC1=NC(=S)NC1(C)C
T/C [4]: 98 % of control | T/C [5]: 103 % of control | T/C [6]: 101 % of control

OCC(O)C(O)Cc1cnc(C(O)C(O)C(O)CO)cn1 (stereo not drawn)
T/C [7]: 93 % of control | T/C [8]: 96 % of control | T/C [9]: 102 % of control | T/C [10]: 108 % of control | T/C (dose: 800.0 mg/kg/injection, schedule: Q01DX009 (ip), vehicle: other): 102 % of control

O=C(NCCCl)Nc1[nH]c(=O)ncc1I
T/C (dose: 1.88 mg/kg/injection, schedule: Q01DX005 (ip), vehicle: saline with Tween-80): 101 % of control | T/C (dose: 3.75 mg/kg/injection, schedule: Q01DX005 (ip), vehicle: saline with Tween-80): 101 % of control | T/C (dose: 7.5 mg/kg/injection, schedule: Q01DX005 (ip), vehicle: saline with Tween-80): 100 % of control | T/C [11]: 95 % of control

O=C(CSc1ccccn1)C1=S=C2C=CC=CN2C1=O
T/C [12]: 92 % of control | T/C [13]: 95 % of control | T/C [14]: 93 % of control

Nc1nnc2nc(CC(=O)c3ccccc3)c(CC(=O)c3ccccc3)nn12
T/C (dose: 60.0 mg/kg/injection, schedule: Q01DX005 (ip), vehicle: saline): 95 % of control | T/C (dose: 120.0 mg/kg/injection, schedule: Q01DX005 (ip), vehicle: saline): 94 % of control | T/C (dose: 240.0 mg/kg/injection, schedule: Q01DX005 (ip), vehicle: saline): 100 % of control

N=C(N)c1ccc(N=Nc2c(O)ccc3cc4c(N=Nc5ccc(C(=N)N)cc5)c(O)ccc4cc23)cc1
T/C [1]: 110 % of control | T/C [2]: 111 % of control | T/C [3]: 110 % of control

CC(=O)Nc1cc2ccccc2c(Br)n1
T/C [15]: 90 % of control | T/C [16]: 97 % of control | T/C [17]: 97 % of control

O=C(N/N=C/c1cc(Cl)cc(Cl)c1[O-])c1ccccc1.O=C(N/N=C/c1cc(Cl)cc(Cl)c1[O-])c1ccccc1.[Zn+2]
T/C [15]: 92 % of control | T/C [16]: 94 % of control | T/C [17]: 92 % of control

CC(=O)C(C)C(C)=NCCN=C(C)C(C)C(C)=O (stereo not drawn)
T/C [1]: 110 % of control | T/C [2]: 110 % of control | T/C [3]: 103 % of control

CCN(CCO)CCNc1ccc(CO)c2sc3cc(Cl)ccc3c(=O)c12
T/C (dose: 88.0 mg/kg/injection, schedule: Q01DX009 (ip), vehicle: saline with Tween-80): 105 % of control | T/C (dose: 133.0 mg/kg/injection, schedule: Q01DX009 (ip), vehicle: saline with Tween-80): 113 % of control | T/C (dose: 200.0 mg/kg/injection, schedule: Q01DX009 (ip), vehicle: saline with Tween-80): 112 % of control | T/C (dose: 300.0 mg/kg/injection, schedule: Q01DX009 (ip), vehicle: saline with Tween-80): 102 % of control

O=c1[nH]c(Br)nc2nc[nH]c12
T/C [12]: 93 % of control | T/C [13]: 94 % of control | T/C [14]: 92 % of control

O=c1oc(-c2ccccc2O)ns1
T/C [18]: 98 % of control | T/C (dose: 200.0 mg/kg/injection, schedule: Q01DX009 (ip), vehicle: Klucel (hydroxypropylcellulose) (HPC)): 102 % of control | T/C (dose: 400.0 mg/kg/injection, schedule: Q01DX009 (ip), vehicle: Klucel (hydroxypropylcellulose) (HPC)): 97 % of control

Cc1c(Br)sc2ccc3ccccc3c12
T/C [15]: 103 % of control | T/C [16]: 106 % of control | T/C [17]: 103 % of control

BrCC[N+]12CC[N+](CCBr)(CC1)C2
T/C (dose: 6.25 mg/kg/injection, schedule: Q01DX009 (ip), vehicle: saline): 114 % of control | T/C [19]: 116 % of control | T/C [4]: 203 % of control and 110 % of control and 121 % of control | T/C (dose: 50.0 mg/kg/injection, schedule: Q04DX003 (ip), vehicle: water): 101 % of control | T/C [5]: 202 % of control and 115 % of control and 118 % of control | T/C (dose: 100.0 mg/kg/injection, schedule: Q04DX003 (ip), vehicle: water): 108 % of control | T/C [6]: 114 % of control | T/C (dose: 400.0 mg/kg/injection, schedule: Q04DX003 (ip), vehicle: water): 173 % of control

CC1(C)OC(CC(=O)O)C23COC(C(=O)C4(C)C2CCC2(C)C(c5ccoc5)OC(=O)C5OC524)C13 (stereo not drawn)
T/C (dose: 0.75 mg/kg/injection, schedule: Q01DX009 (ip), vehicle: saline + alcohol): 106 % of control | T/C (dose: 1.5 mg/kg/injection, schedule: Q01DX009 (ip), vehicle: saline + alcohol): 99 % of control | T/C (dose: 3.0 mg/kg/injection, schedule: Q01DX009 (ip), vehicle: saline + alcohol): 101 % of control | T/C (dose: 6.0 mg/kg/injection, schedule: Q01DX009 (ip), vehicle: saline + alcohol): 101 % of control

CCNC(=O)OCc1ccco1
T/C [19]: 92 % of control | T/C [20]: 92 % of control | T/C [21]: 107 % of control

CC(=O)NC1CC(C)(C)NC(C)(C)C1
T/C [19]: 100 % of control | T/C [20]: 96 % of control | T/C [4]: 114 % of control and 88 % of control | T/C [6]: 95 % of control

Nc1ccc(S(=O)(=O)F)cc1Cl
T/C [4]: 100 % of control | T/C [5]: 97 % of control | T/C [6]: 111 % of control

NC(C[P+](=O)O)C(=O)O (stereo not drawn)
T/C (dose: 18.75 mg/kg/injection, schedule: Q01DX005 (ip), vehicle: water): 103 % of control | T/C (dose: 37.5 mg/kg/injection, schedule: Q01DX005 (ip), vehicle: water): 111 % of control | T/C (dose: 75.0 mg/kg/injection, schedule: Q01DX005 (ip), vehicle: water): 91 % of control | T/C (dose: 150.0 mg/kg/injection, schedule: Q01DX005 (ip), vehicle: water): 87 % of control

C=Cn1ccnc1C.C=Cn1ccnc1C.CC(=O)CC(C)=O.CC(=O)CC(C)=O.[Co]
T/C (dose: 12.5 mg/kg/injection, schedule: Q04DX003 (ip), vehicle: saline): 117 % of control and 95 % of control | T/C (dose: 25.0 mg/kg/injection, schedule: Q04DX003 (ip), vehicle: saline): 102 % of control and 117 % of control | T/C (dose: 50.0 mg/kg/injection, schedule: Q04DX003 (ip), vehicle: saline): 105 % of control and 123 % of control

COc1ccc2nc(NC(=O)C(=O)C(C)C(=O)c3ccc(Cl)cc3)sc2c1 (stereo not drawn)
T/C [11]: 108 % of control | T/C [22]: 98 % of control | T/C (dose: 240.0 mg/kg/injection, schedule: Q01DX005 (ip), vehicle: saline with Tween-80): 105 % of control

O=C(CCl)Nc1ccccc1S(=O)(=O)F
T/C (dose: 12.5 mg/kg/injection, schedule: Q01DX009 (ip), vehicle: Klucel (hydroxypropylcellulose) (HPC)): 100 % of control | T/C (dose: 25.0 mg/kg/injection, schedule: Q01DX009 (ip), vehicle: Klucel (hydroxypropylcellulose) (HPC)): 107 % of control | T/C (dose: 50.0 mg/kg/injection, schedule: Q01DX009 (ip), vehicle: Klucel (hydroxypropylcellulose) (HPC)): 96 % of control | T/C [18]: 107 % of control

O=C1OC2(CCCC2)OC(=O)C1=Cc1ccc([N+](=O)[O-])s1
T/C [21]: 115 % of control | T/C (dose: 100.0 mg/kg/injection, schedule: Q01DX009 (ip), vehicle: saline with Tween-80): 114 % of control

CCOC(=O)C(CCC#N)(C(=O)Cc1ccc(OC)c(OC)c1)C(=O)OCC
T/C (dose: 25.0 mg/kg/injection, schedule: Q01DX009 (ip), vehicle: other): 101 % of control | T/C [7]: 103 % of control | T/C [8]: 106 % of control | T/C [9]: 103 % of control | T/C [10]: 103 % of control

O=C1C(=C(O)c2ccccc2)C(=O)c2ccccc21
T/C (dose: 15.0 mg/kg/injection, schedule: Q01DX005 (ip), vehicle: saline with Tween-80): 99 % of control | T/C (dose: 30.0 mg/kg/injection, schedule: Q01DX005 (ip), vehicle: saline with Tween-80): 105 % of control | T/C [11]: 105 % of control and 109 % of control | T/C [22]: 104 % of control
